Source: patent US11174252B2, “Heterocyclic compounds as kinase inhibitors” (priority 2018, dated 2021)
Where a name gives a salt, the structure may show the parent alone. Read-outs that look alike come from different tables or passages of the source.

How the values were obtained:
CDK1 (cyclin B) = CDK1 (cyclin B) (Homo sapiens (Human), UniProt P06493); test: Z'-LYTE kinase assay; type: biochemical
Excerpt: The following equations were used for Z′-LYTE™ Screening Assay Data Analysis.

CDK2 (cyclin A) = CDK2 (cyclin A) (Homo sapiens (Human), UniProt P24941); test: Z'-LYTE kinase assay; type: biochemical
Protocol: IC50 values of compounds against CDK2 (cyclin A) were determined by Z'-LYTETM. […] The following equations were used for Z'-LYTETM Screening Assay Data Analysis.

CDK2 (cyclin E1) = CDK2 (cyclin E1) (Homo sapiens (Human), UniProt P24941); test: LanthaScreen Eu Kinase Binding Assay; settings: read-out: CDK2/E IC50
BT-549 = test: Cancer cell proliferation assay, single agent; type: cell-based; settings: Homo sapiens, BT-549, 24 h, read-out: IC50 BT-549
MCF-7 = test: Cancer cell proliferation assay, single agent; type: cell-based; settings: Homo sapiens, read-out: IC50 MCF-7
FMS kinase = FMS kinase (Homo sapiens (Human), UniProt P07333); test: LanthaScreen kinase assay (ATP, fluorescent-PolyGT substrate, TR-FRET); type: biochemical
Sequence of FMS kinase (P07333 20-972): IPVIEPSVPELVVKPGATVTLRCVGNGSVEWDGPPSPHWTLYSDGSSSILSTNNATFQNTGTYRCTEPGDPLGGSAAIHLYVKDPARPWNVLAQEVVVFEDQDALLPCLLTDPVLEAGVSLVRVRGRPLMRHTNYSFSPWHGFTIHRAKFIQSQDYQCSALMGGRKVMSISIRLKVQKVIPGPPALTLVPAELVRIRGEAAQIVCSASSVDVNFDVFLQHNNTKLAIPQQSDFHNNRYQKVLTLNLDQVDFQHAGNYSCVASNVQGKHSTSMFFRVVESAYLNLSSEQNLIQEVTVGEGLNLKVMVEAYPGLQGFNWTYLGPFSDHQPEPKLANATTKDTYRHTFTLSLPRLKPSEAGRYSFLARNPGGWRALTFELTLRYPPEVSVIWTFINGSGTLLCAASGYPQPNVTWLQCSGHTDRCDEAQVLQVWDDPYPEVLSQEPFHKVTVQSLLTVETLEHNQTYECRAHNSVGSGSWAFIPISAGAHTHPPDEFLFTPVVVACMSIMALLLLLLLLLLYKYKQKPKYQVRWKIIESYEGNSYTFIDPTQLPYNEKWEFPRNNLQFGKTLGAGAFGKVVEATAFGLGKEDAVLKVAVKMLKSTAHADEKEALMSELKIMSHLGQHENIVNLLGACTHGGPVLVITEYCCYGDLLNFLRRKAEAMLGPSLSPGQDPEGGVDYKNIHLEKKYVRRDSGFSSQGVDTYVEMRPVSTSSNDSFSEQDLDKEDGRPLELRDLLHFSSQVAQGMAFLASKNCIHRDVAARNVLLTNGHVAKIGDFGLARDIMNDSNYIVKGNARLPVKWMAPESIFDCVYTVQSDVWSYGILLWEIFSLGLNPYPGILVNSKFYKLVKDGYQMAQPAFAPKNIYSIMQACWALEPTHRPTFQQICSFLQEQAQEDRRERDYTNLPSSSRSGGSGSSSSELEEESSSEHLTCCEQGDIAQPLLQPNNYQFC

PI3Kδ kinase = PI3Kδ kinase (Homo sapiens (Human), UniProt O00329); test: PI3Kδ kinase ADP-Glo assay (Reaction Biology Corporation); settings: read-out: PI3Kδ IC50
Sequence of PI3Kδ kinase (O00329 whole entry): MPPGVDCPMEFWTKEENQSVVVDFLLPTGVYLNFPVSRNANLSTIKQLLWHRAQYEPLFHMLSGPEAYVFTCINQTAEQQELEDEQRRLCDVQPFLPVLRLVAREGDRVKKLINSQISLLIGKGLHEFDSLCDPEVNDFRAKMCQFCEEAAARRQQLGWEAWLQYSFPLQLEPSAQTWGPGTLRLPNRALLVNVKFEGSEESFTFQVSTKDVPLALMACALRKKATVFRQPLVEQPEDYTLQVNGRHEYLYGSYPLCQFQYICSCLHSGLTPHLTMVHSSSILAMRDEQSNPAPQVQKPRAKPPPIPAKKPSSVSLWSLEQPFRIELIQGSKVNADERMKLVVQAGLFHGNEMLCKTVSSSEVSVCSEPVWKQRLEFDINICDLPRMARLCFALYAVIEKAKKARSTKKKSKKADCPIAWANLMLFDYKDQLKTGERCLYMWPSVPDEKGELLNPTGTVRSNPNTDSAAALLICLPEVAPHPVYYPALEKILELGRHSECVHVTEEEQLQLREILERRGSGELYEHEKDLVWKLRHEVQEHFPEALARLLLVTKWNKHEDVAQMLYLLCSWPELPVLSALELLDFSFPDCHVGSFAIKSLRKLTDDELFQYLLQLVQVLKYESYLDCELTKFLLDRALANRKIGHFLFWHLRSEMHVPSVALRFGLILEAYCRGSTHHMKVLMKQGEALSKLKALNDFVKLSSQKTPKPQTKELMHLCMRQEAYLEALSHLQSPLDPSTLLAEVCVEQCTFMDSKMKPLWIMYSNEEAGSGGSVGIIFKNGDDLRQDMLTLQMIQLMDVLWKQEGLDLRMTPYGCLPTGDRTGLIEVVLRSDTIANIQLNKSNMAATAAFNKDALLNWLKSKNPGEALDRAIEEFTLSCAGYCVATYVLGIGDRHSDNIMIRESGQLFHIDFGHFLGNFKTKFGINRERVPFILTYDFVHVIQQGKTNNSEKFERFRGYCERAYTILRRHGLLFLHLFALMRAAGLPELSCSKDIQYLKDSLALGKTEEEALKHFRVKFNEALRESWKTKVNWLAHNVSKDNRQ
Sequence of PI3Kδ kinase (P27986 whole entry partner): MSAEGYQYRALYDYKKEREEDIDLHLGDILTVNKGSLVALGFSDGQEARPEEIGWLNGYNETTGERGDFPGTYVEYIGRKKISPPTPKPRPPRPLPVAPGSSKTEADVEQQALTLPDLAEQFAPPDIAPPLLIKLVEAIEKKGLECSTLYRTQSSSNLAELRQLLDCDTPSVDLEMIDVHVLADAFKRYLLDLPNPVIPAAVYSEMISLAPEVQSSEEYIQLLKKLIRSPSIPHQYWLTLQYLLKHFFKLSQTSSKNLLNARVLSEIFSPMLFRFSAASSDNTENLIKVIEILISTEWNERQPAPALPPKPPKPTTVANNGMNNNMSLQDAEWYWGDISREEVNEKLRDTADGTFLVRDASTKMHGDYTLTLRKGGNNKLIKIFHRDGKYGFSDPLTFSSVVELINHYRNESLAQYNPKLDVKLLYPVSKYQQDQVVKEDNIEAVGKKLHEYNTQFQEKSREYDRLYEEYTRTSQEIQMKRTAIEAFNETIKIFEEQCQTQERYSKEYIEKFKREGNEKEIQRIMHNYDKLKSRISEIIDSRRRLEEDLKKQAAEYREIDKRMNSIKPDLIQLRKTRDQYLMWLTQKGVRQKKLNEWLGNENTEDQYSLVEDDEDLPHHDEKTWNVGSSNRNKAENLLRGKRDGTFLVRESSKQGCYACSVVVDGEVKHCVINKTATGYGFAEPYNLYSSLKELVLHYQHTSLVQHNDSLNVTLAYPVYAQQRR

DU4475 = test: Cancer cell proliferation assay, single agent; type: cell-based; settings: Homo sapiens, DU-4475, 168 h, read-out: IC50 DU4475
[1] = tested on: pRb (Ser780 phosphorylation state of RB1) in MCF-7 cells; test: Determination of pRb levels (Ser780 phosphorylation of RB1, ELISA) in MCF-7 cells; type: cell-based; settings: Homo sapiens, 24 h; for inhibition at 0.01 µM: MCF7, 0.01 μM; for inhibition at 0.1 µM: MCF7, 0.1 μM; for inhibition at 1 µM: MCF7, 1 μM
Protocol: […] of the retinoblastoma protein (pRb) by cyclin D:Cdk4/6 complexes results in […] pRb, which is a clinically relevant biomarker associated with CDK4 or CDK6 inhibition. As a confirmatory measure of functional activity of CDK4/6, the Ser780 phosphorylation state of RB1 was assessed. MCF-7 cells were plated at 2.5×10^5 to 3.0×10^6 cells/well in 6-well cell-culture plates and incubated at 37° C. for 24 h in MEM medium supplemented with 10% FBS. Cells were treated for 24 h with a medium containing test compound at various concentrations (e.g., 0.01, 0.1, 1 μM) or with DMSO (≤1%) in duplicate. After incubation period, the media was removed, and cells were rinsed once with ice-cold PBS and lysed with 0.2 mL of Cell Lysis Buffer containing 1 mM PMSF and Protease Inhibitor. Protein concentration was estimated following Bradford method. The lysis and the pRB measurements were performed following the manufacturer's ELISA kit protocols and buffers (Cell Signaling Technology, Cat. No.: 13016C). pRb inhibition of test compounds were calculated as percentage of vehicle control.

HCT-116 = test: Cancer cell proliferation assay, single agent; type: cell-based; settings: Homo sapiens, Treatment Duration 72 h, read-out: IC50 HCT116
A549 = test: Cancer cell proliferation assay, single agent; type: cell-based; settings: Homo sapiens, A549, 72 h, read-out: IC50 A549
CDK4 = CDK4 (Homo sapiens (Human), UniProt P11802); test: In vitro kinase inhibition, luminescence (ADP-Glo) with retinoblastoma substrate; type: biochemical
Sequence of CDK4 (P11802 whole entry): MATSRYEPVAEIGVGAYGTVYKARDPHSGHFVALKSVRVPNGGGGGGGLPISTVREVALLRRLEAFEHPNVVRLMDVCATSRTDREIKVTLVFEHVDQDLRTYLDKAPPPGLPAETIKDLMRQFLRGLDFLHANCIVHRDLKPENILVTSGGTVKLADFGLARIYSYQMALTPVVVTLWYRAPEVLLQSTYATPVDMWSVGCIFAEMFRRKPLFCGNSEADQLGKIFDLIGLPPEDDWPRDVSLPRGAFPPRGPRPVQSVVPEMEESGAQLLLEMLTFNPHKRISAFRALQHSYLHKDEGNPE
Sequence of CDK4 (P24385 whole entry partner): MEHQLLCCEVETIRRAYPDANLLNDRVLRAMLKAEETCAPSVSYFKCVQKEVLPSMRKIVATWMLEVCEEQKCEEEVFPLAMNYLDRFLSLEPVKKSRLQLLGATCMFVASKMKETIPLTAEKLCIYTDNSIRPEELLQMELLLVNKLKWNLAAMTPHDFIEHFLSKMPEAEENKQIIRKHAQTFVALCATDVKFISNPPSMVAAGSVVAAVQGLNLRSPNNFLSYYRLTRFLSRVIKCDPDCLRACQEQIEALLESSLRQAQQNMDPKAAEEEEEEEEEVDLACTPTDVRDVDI

CDK6 = CDK6 (Homo sapiens (Human), UniProt Q00534); test: biochemical; type: biochemical
Hs-578T = test: Cancer cell proliferation assay, single agent; type: cell-based; settings: Homo sapiens, Treatment Duration 24 h
ZR-75-30 = test: Cancer cell proliferation assay, single agent; type: cell-based; settings: Homo sapiens, Treatment Duration 24 h

Sequence of CDK1 (cyclin B) (P06493 whole entry): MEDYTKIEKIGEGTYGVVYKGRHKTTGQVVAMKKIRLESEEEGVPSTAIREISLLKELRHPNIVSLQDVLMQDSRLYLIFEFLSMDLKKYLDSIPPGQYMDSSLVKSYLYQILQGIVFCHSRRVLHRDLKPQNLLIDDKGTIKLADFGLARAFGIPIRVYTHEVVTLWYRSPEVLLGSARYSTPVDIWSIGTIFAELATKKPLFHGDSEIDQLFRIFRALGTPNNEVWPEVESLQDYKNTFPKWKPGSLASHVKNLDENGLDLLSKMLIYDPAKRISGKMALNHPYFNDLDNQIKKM
Sequence of CDK1 (cyclin B) (P14635 whole entry partner): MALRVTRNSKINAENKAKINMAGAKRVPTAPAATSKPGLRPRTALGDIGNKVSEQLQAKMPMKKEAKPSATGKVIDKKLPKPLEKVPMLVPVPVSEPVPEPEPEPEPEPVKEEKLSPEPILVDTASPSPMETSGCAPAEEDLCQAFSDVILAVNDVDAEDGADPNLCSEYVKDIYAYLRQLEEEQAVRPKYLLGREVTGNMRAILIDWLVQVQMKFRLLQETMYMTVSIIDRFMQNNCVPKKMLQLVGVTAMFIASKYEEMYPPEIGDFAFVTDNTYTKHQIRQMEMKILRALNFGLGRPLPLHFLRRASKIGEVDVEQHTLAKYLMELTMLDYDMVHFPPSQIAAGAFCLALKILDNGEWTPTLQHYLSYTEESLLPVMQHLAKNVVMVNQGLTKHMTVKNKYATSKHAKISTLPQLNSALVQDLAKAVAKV

Structure (SMILES) | IC50 (CDK1 (cyclin B)) [nM] | IC50 (CDK2 (cyclin A)) [nM] | IC50 (CDK2 (cyclin E1)) [nM] | IC50 (BT-549) [nM] | IC50 (MCF-7; MCF7, 72 h) [nM] | IC50 (FMS kinase) [nM] | IC50 (PI3Kδ kinase) [nM] | IC50 (DU4475) [nM] | inhibition at 0.01 µM [1] [%] | inhibition at 0.1 µM [1] [%] | inhibition at 1 µM [1] [%] | IC50 (HCT-116) [nM] | IC50 (A549) [nM] | IC50 (CDK4) [nM] | IC50 (CDK6) [nM] | IC50 (Hs-578T) [nM] | IC50 (MCF-7; MCF7, Treatment Duration 72 h) [nM] | IC50 (ZR-75-30) [nM]
CC(C)N1CCOc2c(F)cc(-c3nc(Nc4ccc(N5CCNCC5)c(F)c4)ncc3F)cc21 [Compound 12, 5-fluoro-N-(3-fluoro-4-(piperazin-1-yl)phenyl)-4-(8-fluoro-4-isopropyl-3,4-dihydro-2H-benzo[b][1,4]oxazin-6-yl)pyrimidin-2-amine hydrochloride] | 3.9 | 0.7 | 7.2 | 230 | < 10 | 29 | 674 | 40 | -5 | 81 | 81 | < 13 | < 13 | – | – | – | – | –
CC(C)N1CCOc2c(F)cc(-c3nc(Nc4ccc(N5CCNCC5)cn4)ncc3F)cc21 [Compound 1, 5-fluoro-4-(8-fluoro-4-isopropyl-3,4-dihydro-2H-benzo[b][1,4]oxazin-6-yl)-N-(5-(piperazin-1-yl)pyridin-2-yl)pyrimidin-2-amine] | – | – | – | 3200 | – | 1330 | 3360 | 575 | 77 | 80 | 89 | 515 | 65 | 0.2 | 0.2 | 60 | 68 | 49
